Results as given in paper PMC4839669, “Heterologous Expression and Biochemical Characterization of Two Lipoxygenases in Oriental Melon, Cucumis melo var. makuwa Makino” (PLoS ONE, 2016).

Target: T1, CmLOX10 (Cucumis melo, UniProt A0A125S6K7)
T1 construct: gene LOX10; full-length 902 residues incl. predicted 37-residue transit peptide; N-terminal His tag (pET-30a), E. coli BL21(DE3), Ni-NTA
T1 sequence (A0A125S6K7 1-902): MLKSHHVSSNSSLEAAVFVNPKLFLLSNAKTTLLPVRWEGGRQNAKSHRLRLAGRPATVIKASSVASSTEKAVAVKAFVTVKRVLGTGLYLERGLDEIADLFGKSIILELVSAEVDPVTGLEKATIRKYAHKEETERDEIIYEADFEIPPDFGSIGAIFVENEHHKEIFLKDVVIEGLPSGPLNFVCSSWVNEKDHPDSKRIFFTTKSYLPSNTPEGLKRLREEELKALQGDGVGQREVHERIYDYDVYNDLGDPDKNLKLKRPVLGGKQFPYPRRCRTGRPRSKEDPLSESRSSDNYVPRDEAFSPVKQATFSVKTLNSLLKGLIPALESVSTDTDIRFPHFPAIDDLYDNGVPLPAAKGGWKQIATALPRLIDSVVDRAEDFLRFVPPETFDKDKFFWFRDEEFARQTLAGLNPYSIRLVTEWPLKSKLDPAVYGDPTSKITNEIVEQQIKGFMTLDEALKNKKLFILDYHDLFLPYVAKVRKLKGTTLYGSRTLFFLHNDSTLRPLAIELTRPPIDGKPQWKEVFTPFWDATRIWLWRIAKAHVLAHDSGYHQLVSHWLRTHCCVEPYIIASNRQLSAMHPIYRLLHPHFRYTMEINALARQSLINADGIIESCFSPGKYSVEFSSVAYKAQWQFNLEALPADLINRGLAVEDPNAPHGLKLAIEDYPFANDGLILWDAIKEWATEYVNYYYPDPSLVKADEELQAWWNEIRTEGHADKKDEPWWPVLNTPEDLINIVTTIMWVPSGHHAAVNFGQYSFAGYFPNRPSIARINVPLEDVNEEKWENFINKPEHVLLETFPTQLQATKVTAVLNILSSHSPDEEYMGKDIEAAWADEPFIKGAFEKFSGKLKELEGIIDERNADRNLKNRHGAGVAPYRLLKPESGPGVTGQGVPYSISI
Experiment: conjugated diene formation at […] nm, Michaelis-Menten
Type: biochemical
Conditions: 25 °C, saturating oxygen, 16.5-330 μM substrate; pH of kinetics not stated explicitly (optimum pH 5.0)

| Km | Compound |
| --- | --- |
| 230 µM | CCCCC/C=C\C/C=C\CCCCCCCC(=O)O [linoleic acid] |
| 140 µM | CC/C=C\C/C=C\C/C=C\CCCCCCCC(=O)O [linolenic acid] |
